According to US9034895B2, “Composition and methods for treating glioblastoma” (University of Washington Through its Center for …, priority 2010, dated 2015):

Test system: U251, A172 and GBM8
Test: Toxic profile in human astrocytoma cell lines
Format: cell-based
Details: range over the three cell lines (FIG. 4), read-out: potency at killing human astrocytoma cell lines U251, A172 and GBM8
Method: Cells were plated media supplemented with 10% serum in 96-well plates (10^4 cells per wellI; 0.1 ml per well). Once they reached ˜70% confluence, they were rinsed with PBS and kept for an additional 24 hrs in media supplemented with 1% serum, at which time drugs or vehicle (DMSO, 0.1%, prepared in 10 μl serum-free media) were directly added to each well. After 3 days, cell viability was assessed using the Cell Proliferation Reagent WST-1 (Roche, Indianapolis, Ind.). Briefly, WST-1 reagent (10 μl) was added to each well for 3 hrs at 37° C. with 5% CO2 and WST-1 products were read at 450 nm using Packard SpectraCount™.
JWH-451 was tested for toxicity in cells expressing GPR124.

CCn1c(C)c(C(=O)c2ccc(C)c3ccccc23)c2ccccc21 [JWH-451, 1-Ethyl-2-methyl-3-(4-methyl-1-napthoyl)indole]
EC50: 2 to 4 µM
